Test results reported in patent US7264956B2, “Compounds and methods for inhibiting axillary malodour” (Givaudan SA, priority 2001, dated 2007).
Where two headings read alike, the source gives them in different places. Where a SMILES comes first, the peptide text is derived from it.

Assays:
[1] = target: T1, isolated enzyme (extracts of A×20) (Corynebacterium striatum, UniProt Q8GGD4); experiment: Low throughput screening for inhibitors, isolated enzyme (released lauric acid by GC); type: biochemical; conditions: substrate Nα-lauroyl-L-glutamine, 2 h; for inhibition at 5000 µM / % inhibition of the isolated enzyme: 5 mM
T1 construct: an enzyme may be isolated from cellular extracts obtained from wild-type bacterial strains; endogenous in cells; host or cells: Corynebacterium striatum Ax20 (DSM 14267), mechanically disrupted; crude extract or chromatographically purified enzyme
T1 sequence (Q8GGD4 2-400): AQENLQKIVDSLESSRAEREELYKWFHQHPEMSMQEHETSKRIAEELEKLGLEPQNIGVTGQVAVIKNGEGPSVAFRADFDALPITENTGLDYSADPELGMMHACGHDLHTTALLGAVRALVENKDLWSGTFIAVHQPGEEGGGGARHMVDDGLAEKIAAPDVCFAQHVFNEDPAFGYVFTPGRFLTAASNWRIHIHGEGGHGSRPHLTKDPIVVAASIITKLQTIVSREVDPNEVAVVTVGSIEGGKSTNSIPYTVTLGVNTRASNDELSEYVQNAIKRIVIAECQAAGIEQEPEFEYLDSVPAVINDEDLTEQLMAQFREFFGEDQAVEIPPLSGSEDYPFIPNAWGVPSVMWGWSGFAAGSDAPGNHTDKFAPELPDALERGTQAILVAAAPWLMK
Method: (§1) Extracts of A×20 were prepared by mechanical disruption as described in Example 3. The extract (0.5 ml corresponding to 2 ml initial cell culture) was added to 3.5 ml of Buffer A and amended with 40 μl of substrate (Nα-lauroyl-L-glutamine, 5% stock solution in methanol). Parallel samples were additionally amended with potential inhibitory compounds to give a final concentration of 0.5 and 5 mM. The samples were incubated for 2 h and then extracted with MTBE and HCI and analysed for released lauric acid using capillary GC. By comparing the samples containing potential inhibitory compounds with control samples with enzyme and substrate only, the inhibition (%) was calculated. The same assay was also made either with purified enzyme from the wild-type strain (see example 3) or with extracts from E.coli Top 10/pBADgIII AMRE induced with arabinose (see example 6). Furthermore, the same assay was made using stationary phase living cells of A×20 instead of an isolated enzyme preparation. In this case successful uptake of the inhibitors into the cells and inhibition are measured simultaneously.

[2] = target: T2, enzyme activity in living cells of A×20 (Corynebacterium striatum, UniProt Q8GGD4); experiment: Low throughput screening for inhibitors, stationary phase living cells of A×20; type: cell-based; conditions: 5 mM; substrate Nα-lauroyl-L-glutamine, 2 h
T2 construct: stationary phase living cells of A×20; endogenous in cells; host or cells: Corynebacterium striatum Ax20, stationary-phase living cells
T2 sequence (Q8GGD4 2-400): as above
Method: as §1

[3] = target: T3, enzyme extracted from Corynebacterium striatum A×20 (AMRE, Nα-acyl-glutamine-aminoacylase) (Corynebacterium striatum, UniProt Q8GGD4); experiment: Substrate specificity of the enzyme (capillary GC of released acid or alcohol); type: biochemical; conditions: for Cleavage by enzyme: 500 ppm in Buffer A, 24 h incubation
T3 construct: an enzyme may be isolated from cellular extracts obtained from wild-type bacterial strains; endogenous in cells; host or cells: Corynebacterium striatum Ax20 (DSM 14267), mechanically disrupted; crude extract or chromatographically purified enzyme
T3 sequence (Q8GGD4 2-400): as above
Method: To understand in detail the structural requirements of substrates, the enzyme extracted from Corynebacterium striatum A×20 was incubated with a wide variety of said compounds related to the originally isolated Nα-3-methyl-3-hydroxy-hexanoyl-L-glutamine present in sweat. Each compound was used at a concentration of 500 ppm in Buffer A, and analysis of released acid or alcohol was done by capillary GC after 24 h of incubation. First, different modifications at the N-terminus were tested.

Compound | cleavage of substrate by enzyme (in words) [3] | Cleavage by enzyme [3] | also measured
c1ccc(-c2ccccn2)nc1 [2,2′-bipyridyl] |  |  | inhibition at 5000 µM [1]: 65%
O=P(O)(O)CN(CP(=O)(O)O)CP(=O)(O)O [Aminotri(methylene-phosphonic acid)] |  |  | % inhibition of the isolated enzyme [1]: 76.6%; % inhibition of enzyme activity in living cells [2]: 55.7%
OC(CS)C(O)CS (stereo not drawn) [Dithiothreitol, 2,3-dihydroxy-butane-1,4-dithiol] |  |  | inhibition at 500 µM ([1]; 0.5 mM): 98%; inhibition at 5000 µM [1]: 100%
CCC(NCCNC(CC)C(=O)O)C(=O)O (stereo not drawn) [Ethylen-diimino-dibutyric acid] |  |  | % inhibition of the isolated enzyme [1]: 44.3%; % inhibition of enzyme activity in living cells [2]: 53.7%
O=C(O)CNCCNCC(=O)O [Ethylendiamine-2-2′-diacetic acid] |  |  | % inhibition of the isolated enzyme [1]: 100%; % inhibition of enzyme activity in living cells [2]: 58.3%
c1ccc(CN(CCN(Cc2ccccn2)Cc2ccccn2)Cc2ccccn2)nc1 [N,N,N′,N′-tetrakis-(2-pyridylmethyl)-ethylendiamine] |  |  | inhibition at 5000 µM [1]: 87.9%; inhibition at 5000 µM [2]: 85.2%
CCCC(C)=CC(=O)N[C@@H](CCC(N)=O)C(=O)O [Nα(3-methyl-2-hexenoyl)-L-glutamine] | able to be cleaved |  | 
NC(=O)CC[C@H](NC(=O)OCCc1ccccc1)C(=O)O [Nα-2-Phenylethyloxycarbonyl-L-glutamine] | able to be cleaved |  | 
CC(C)=CCCC(C)CCOC(=O)N[C@@H](CCC(N)=O)C(=O)O (stereo partly drawn) [Nα-3,7-Dimethyl-6-octenyloxycarbonyl-L-glutamine] | able to be cleaved |  | 
NC(=O)CC[C@H](NC(=O)OCCC12CC3CC(CC(C3)C1)C2)C(=O)O [Nα-(2-Adamantan-1-yl-ethoxycarbonyl)-L-glutamine] | able to be cleaved |  | 
NC(=O)CC[C@H](NC(=O)OCC12CC3CC(CC(C3)C1)C2)C(=O)O [Nα-(2-Adamantan-1-yl-methoxycarbonyl)-L-glutamine] | able to be cleaved |  | 
CC(CCOC(=O)N[C@@H](CCC(N)=O)C(=O)O)CCc1ccccc1 (stereo partly drawn) [Nα-(3-Methyl-5-phenylpentanoxycarbonyl)-L-glutamine] | able to be cleaved |  | 
CCC=CCCOC(=O)N[C@@H](CCC(N)=O)C(=O)O [Nα-(3-hexenyl)oxycarbonyl-L-glutamine] | able to be cleaved |  | 
CCCC(C)(O)CC(=O)N[C@@H](CCC(N)=O)C(=O)O (stereo partly drawn) [Nα-(3-hydroxy-3-methyl-hexanoyl)-L-glutamine] | able to be cleaved |  | 
COc1ccc(SC(=O)N[C@@H](CCC(N)=O)C(=O)O)cc1 [Nα-(4-methoxy-phenylsulfanylcarbonyl)-L-glutamine] | able to be cleaved |  | 
CC(C)(C)C1CCC(OC(=O)N[C@@H](CCC(N)=O)C(=O)O)CC1 (stereo partly drawn) [Nα-(4-tert-Butylcyclohexyloxycarbonyl)-L-glutamine] | able to be cleaved |  | 
C=CCCCCCCCCC(=O)N[C@@H](CCC(N)=O)C(=O)O [Nα-(11-undecenoyl)-L-glutamine] | able to be cleaved |  | 
CCCCOC(=O)N[C@@H](CCC(N)=O)C(=O)O [Nα-Butyloxycarbonyl-L-glutamine] | able to be cleaved |  | 
CC1=CCC(CCOC(=O)N[C@@H](CCC(N)=O)C(=O)O)C1(C)C (stereo partly drawn) [Nα-[2-(2,2,3-trimethyl-cyclopent-3-enyl)-ethoxycarbonyl)-L-glutamine] | able to be cleaved |  | 
CCCCCCCCCC(=O)N[C@@H](CCC(N)=O)C(=O)O [Nα-decanoyl-L-glutamine] | able to be cleaved |  | 
CCCCCCCCCCCCCC(=O)N[C@@H](CCC(N)=O)C(=O)O [Nα-tetradecanoyl-L-glutamine] | able to be cleaved |  | 

Compound | cleavage of substrate by enzyme (in words) [3] | Cleavage by enzyme [3] | also measured
O=C(O)c1cccc(C(=O)O)n1 [Pyridine-2,6dicarboxylic acid] |  |  | inhibition at 5000 µM [1]: 100%; inhibition at 5000 µM [2]: 64.3%
CCCCCCCCCC(=O)N[C@@H](CCC(N)=O)C(=O)O [compound 3, Nα-decanoyl-L-glutamine] |  | +++ (+++ cleavage over 50%) | 
NC(=O)CC[C@H](NC(=O)OCc1ccccc1)C(=O)O [compound 4, Carbobenzyloxy-L-glutamine] |  | ++ (++ cleavage 10–50%) | cleavage of substrate by enzyme (in words) ([3]; listed as Nα-Carbobenzyloxy-L-glutamine): able to be cleaved; cleavage of substrate by enzyme (in words) ([3]; listed as Nα-carbobenzyloxy-L-glutamine): can cleave
CC(C)=CCCC(C)CCOC(=O)N[C@@H](CCC(N)=O)C(=O)O (stereo partly drawn) [compound 5, Nα-3,7-Dimethyl-6-octenyloxycarbonyl-L-glutamine] | can cleave | +++ (+++ cleavage over 50%) | 
CCCCCCCCCCCC(=O)N[C@@H](CC(=O)O)C(=O)O [compound 6, N-Lauroyl-L-aspartate] |  | − | 
CCCCCCCCCCCC(=O)N[C@@H](CCCCN)C(=O)O [compound 7, Nα-Lauroyl-L-lysine] |  | − | 
CCCCCCCCCCCC(=O)N[C@@H](CCCNC(=N)N)C(=O)O [compound 8, Nα-Lauroyl-L-arginine] |  | − | 
CCCCCCCCCCCC(=O)N[C@@H](C)C(=O)O [compound 9, N-lauroyl-L-alanine] |  | + (+ indicates cleavage < 10%) | 
C[C@H](NC(=O)OCc1ccccc1)C(=O)O [compound 10, Carbobenzyloxy-L-alanine] |  | + (+ indicates cleavage < 10%) | 
O=C(O)CC[C@H](NC(=O)OCc1ccccc1)C(=O)O [compound 11, Carbobenzyloxy-L-glutamate] |  | − | 
O=C(O)C[C@H](NC(=O)OCc1ccccc1)C(=O)O [compound 13, Carbobenzyloxy-L-aspartate] |  | − | 
O=C(N[C@@H](CO)C(=O)O)OCc1ccccc1 [compound 14, Carbobenzyloxy-L-serine] |  | − | 
O=C(N[C@@H](Cc1ccc(O)cc1)C(=O)O)OCc1ccccc1 [compound 15, Carbobenzyloxy-L-tyrosine] |  | − | 
O=C(O)CNC(=O)OCc1ccccc1 [compound 16, Carbobenzyloxy-L-glycine] |  | − | 
O=C(N[C@@H](Cc1c[nH]cn1)C(=O)O)OCc1ccccc1 [compound 17, Carbobenzyloxy-L-histidine] |  | − | 
CC(C)C[C@H](NC(=O)OCc1ccccc1)C(=O)O [compound 18, Carbobenzyloxy-L-leucine] |  | − | 
NC(=O)CC[C@@H](NC(=O)OCc1ccccc1)C(=O)O [compound 19, Carbobenzyloxy-D-glutamine] | cannot cleave | − | 
COC(=O)[C@H](CCC(N)=O)NC(=O)OCc1ccccc1 [compound 20, Carbobenzyloxy-L-glutamine-O-Me] | does not cleave | − | 
NC(=O)CC[C@H](NC(=O)OCc1ccccc1)C(=O)NCC(=O)O [compound 21, Carbobenzyloxy-L-glutamine- Gly-OH] (HELM PEPTIDE1{[O=C(OCc1ccccc1)[*:2]].Q.G}$$$$V2.0) | does not cleave | − | 
O=C(CC[C@H](NOCc1ccccc1)C(=O)O)NCc1ccccc1 [compound 22, 4-benzylcarbamoyl-2-(S)-benzyloxyamino-butyric acid] | cannot cleave | − | 
